What was measured:
[1] = target: human CXCR3A (Homo sapiens (Human), UniProt P49682); assay: FLIPR assay; assay type: cell-based; conditions: CHO-K1 cells expressing the human CXCR3A coupled to Galpha(16); CXCL10 agonist 20 nM; Fluo-4-AM fluorescence; mean values if determined several times
How it was run: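 CHO-K1 cells expressing CXCR3A coupled to Gα16 were loaded with Fluo-4-AM for 1 h in Hepes-buffered HBSS, pH 7.4, with 5 mM probenecid. Compound dilutions were added on the FLIPR, followed by CXCL10 (added as a 20 nM solution). Baseline-subtracted peak fluorescence was fitted to a single-site curve for IC50.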

[2] = target: CXCR3 (Homo sapiens (Human), UniProt P49682); assay: Receptor internalization assay; assay type: cell-based; conditions: human whole blood; final CXCL10 concentration 9 nM; 30 min 37° C.; CXCR3 cell surface expression on CD3 positive cells, flow cytometer; read-out: Internalization IC50
Chain of CXCR3 (P49682 whole entry): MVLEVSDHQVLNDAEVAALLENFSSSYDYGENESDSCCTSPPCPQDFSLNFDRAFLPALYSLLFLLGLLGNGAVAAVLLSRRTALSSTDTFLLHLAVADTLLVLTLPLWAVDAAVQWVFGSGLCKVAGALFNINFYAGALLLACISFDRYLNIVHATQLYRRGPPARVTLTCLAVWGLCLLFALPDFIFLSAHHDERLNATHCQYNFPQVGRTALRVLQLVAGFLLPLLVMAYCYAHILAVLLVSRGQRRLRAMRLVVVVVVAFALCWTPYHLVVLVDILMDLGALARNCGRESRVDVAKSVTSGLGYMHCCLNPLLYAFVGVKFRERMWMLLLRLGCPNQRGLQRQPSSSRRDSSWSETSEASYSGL
How it was run: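 In human whole blood, compounds were incubated with CXCL10 (9 nM final) for 30 min at 37 °C to drive receptor internalization, then stained with anti-CXCR3/CD3 antibodies and lysed of red cells. Flow cytometry measured mean surface CXCR3 fluorescence on CD3+ cells, and IC50 came from single-site dose-response fits.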

Chain of human CXCR3A (P49682 whole entry): as above

Compound | IC50 [1] | IC50 [2]
O=C(Cn1ncc2ccccc21)N1CCN(c2scnc2-c2nc3ccccc3[nH]2)CC1 [Example 109, 1-{4-[4-(1H-Benzoimidazol-2-yl)-thiazol-5-yl]-piperazin-1-yl}-2-indazol-1-yl-ethanone] | 16 nM | 1970 nM
C[C@@H]1CN(c2sc(C3COC3)nc2-c2nc3ccccc3[nH]2)CCN1C(=O)Cn1cnc2cccnc21 [Example 113, 1-{(R)-4-[4-(1H-Benzoimidazol-2-yl)-2-oxetan-3-yl-thiazol-5-yl]-2-methyl-piperazin-1-yl}-2-imidazo[4,5-b]pyridin-3-yl-ethanone] | 9 nM | 1510 nM
C[C@@H]1CN(c2scnc2-c2nc3ccccc3[nH]2)CCN1C(=O)Cn1ncc2cccnc21 [Example 115, 1-{(R)-4-[4-(1H-Benzoimidazol-2-yl)-thiazol-5-yl]-2-methyl-piperazin-1-yl}-2-pyrazolo[3,4-b]pyridin-1-yl-ethanone] | 1 nM | 809 nM
C[C@@H]1CN(c2scnc2-c2nc3ccccc3[nH]2)CCN1C(=O)Cn1cc2cccnc2n1 [Example 116, 1-{(R)-4-[4-(1H-Benzoimidazol-2-yl)-thiazol-5-yl]-2-methyl-piperazin-1-yl}-2-pyrazolo[3,4-b]pyridin-2-yl-ethanone] | 3 nM | 306 nM
C[C@@H]1CN(c2scnc2-c2nc3ccccc3[nH]2)CCN1C(=O)Cc1cccc2ccccc12 [Example 118, 1-{(R)-4-[4-(1H-Benzoimidazol-2-yl)-thiazol-5-yl]-2-methyl-piperazin-1-yl}-2-naphthalen-1-yl-ethanone] | 3 nM | 3780 nM
C[C@@H]1CN(c2scnc2-c2nc3ccccc3[nH]2)CCN1C(=O)Cc1cccc2cccnc12 [Example 119, 1-{(R)-4-[4-(1H-Benzoimidazol-2-yl)-thiazol-5-yl]-2-methyl-piperazin-1-yl}-2-quinolin-8-yl-ethanone] | 2 nM | 2450 nM
C[C@@H]1CN(c2scnc2-c2nc3ccccc3[nH]2)CCN1C(=O)Cc1noc2ccccc12 [Example 130, 2-Benzo[d]isoxazol-3-yl-1-{(R)-4-[4-(1H-benzoimidazol-2-yl)-thiazol-5-yl]-2-methyl-piperazin-1-yl}-ethanone] | 3 nM | 2670 nM
C[C@@H]1CN(c2scnc2-c2nc3ccccc3[nH]2)CCN1C(=O)Cc1n[nH]c2ccccc12 [Example 132, 1-{(R)-4-[4-(1H-Benzoimidazol-2-yl)-thiazol-5-yl]-2-methyl-piperazin-1-yl}-2-(1H-indazol-3-yl)-ethanone] | 3 nM | 6380 nM
C[C@@H]1CN(c2scnc2-c2nc3ccccc3[nH]2)CCN1C(=O)Cn1cnc2ccncc21 [Example 137, 1-{(R)-4-[4-(1H-Benzoimidazol-2-yl)-thiazol-5-yl]-2-methyl-piperazin-1-yl}-2-imidazo[4,5-c]pyridin-3-yl-ethanone] | 5 nM | 1140 nM
C[C@@H]1CN(c2scnc2-c2nc3ccccc3[nH]2)CCN1C(=O)Cn1cnc2cnccc21 [Example 138, 1-{(R)-4-[4-(1H-Benzoimidazol-2-yl)-thiazol-5-yl]-2-methyl-piperazin-1-yl}-2-imidazo[4,5-c]pyridin-1-yl-ethanone] | 4 nM | 1090 nM
C[C@@H]1CN(c2scnc2-c2nc3ccccc3[nH]2)CCN1C(=O)CN1CCc2cccnc21 [Example 139, 1-{(R)-4-[4-(1H-Benzoimidazol-2-yl)-thiazol-5-yl]-2-methyl-piperazin-1-yl}-2-(2,3-dihydro-pyrrolo[2,3-b]pyridin-1-yl)-ethanone] | 2 nM | 2930 nM
C[C@@H]1CN(c2scnc2-c2nc3ccccc3[nH]2)CCN1C(=O)Cn1ccc2ccncc21 [Example 141, 1-{(R)-4-[4-(1H-Benzoimidazol-2-yl)-thiazol-5-yl]-2-methyl-piperazin-1-yl}-2-pyrrolo[2,3-c]pyridin-1-yl-ethanone] | 0.2 nM | 363 nM
